In test [1] the target is T1, AAK1 (Homo sapiens, UniProt Q2M2I8).
T1 construct: HA; expressed in transfected cells; host or cells: HEK293F
In words: P81 filter plate assay. The class given is biochemical. The conditions noted are these: full-length human AAK1, Mu2 substrate.

For test [2], the target named is T1, AAK1. Nature of the test: HEK281 cell-based assay (phospho-mu2 Western blot in transfected HEK293F cells). The conditions noted are these: 3 hours incubation, read-out: CBA IC50. In outline:
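HEK293F cells co-transfected with full-length human AAK1/HA and Flag/AP2M1 were treated next day with 5 compound concentrations (3-fold dilutions) in DMEM+0.5% FBS for 3 hours at 37° C. Lysates were Western blotted for phospho-mu2, with total mu2 detected by anti-Flag.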
(In general: A western blot detects proteins with antibodies after separation by electrophoresis.)

The values that follow come from patent publication US8969565B2, “Imidazo[1,2-b]pyridazine-based compounds, compositions comprising them, and methods of their use” (Lexicon Pharmaceuticals, Inc., priority 2012, dated 2015).

T1 sequence (Q2M2I8 1-863 isoform Q2M2I8-2): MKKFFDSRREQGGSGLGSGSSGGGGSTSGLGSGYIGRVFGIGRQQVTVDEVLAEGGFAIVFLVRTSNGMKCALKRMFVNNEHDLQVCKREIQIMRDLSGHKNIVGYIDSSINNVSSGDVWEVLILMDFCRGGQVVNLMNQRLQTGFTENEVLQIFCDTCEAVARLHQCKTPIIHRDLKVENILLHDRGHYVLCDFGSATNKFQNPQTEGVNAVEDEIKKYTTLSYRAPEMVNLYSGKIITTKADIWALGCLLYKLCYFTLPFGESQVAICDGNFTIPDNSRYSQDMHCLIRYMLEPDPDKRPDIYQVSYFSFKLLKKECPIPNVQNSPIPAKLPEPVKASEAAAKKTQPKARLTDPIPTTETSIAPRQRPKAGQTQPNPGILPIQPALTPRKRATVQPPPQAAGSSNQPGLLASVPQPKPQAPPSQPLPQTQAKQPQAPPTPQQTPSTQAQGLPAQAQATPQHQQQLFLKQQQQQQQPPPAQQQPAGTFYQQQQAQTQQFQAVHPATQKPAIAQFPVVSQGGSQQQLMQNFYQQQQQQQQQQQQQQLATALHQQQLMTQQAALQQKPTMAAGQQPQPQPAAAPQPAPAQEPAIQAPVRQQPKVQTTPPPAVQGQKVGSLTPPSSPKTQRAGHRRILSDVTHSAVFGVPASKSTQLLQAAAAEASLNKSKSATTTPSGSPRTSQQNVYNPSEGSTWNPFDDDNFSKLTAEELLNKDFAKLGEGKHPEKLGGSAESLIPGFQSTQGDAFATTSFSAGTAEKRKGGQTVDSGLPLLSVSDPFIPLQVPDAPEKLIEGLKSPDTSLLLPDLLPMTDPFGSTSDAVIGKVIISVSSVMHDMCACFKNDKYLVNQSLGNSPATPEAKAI

For orientation: IC50 means the concentration that gives 50% inhibition. Take `COc1ccc(F)cc1-c1cnc2ccc(N3CC[C@H](N(C)C(=O)OC(C)C)C3)nn12` [(S)-isopropyl (1-(3-(5-fluoro-2-methoxyphenyl)imidazo[1,2-b]pyridazin-6-yl)pyrrolidin-3-yl)(methyl)carbamate]: the concentration for half-maximal inhibition (IC50) against AAK1 [1] and at AAK1 [2] was ≤ 10 nM each time.

Regarding `COc1ncc(F)cc1-c1cnc2ccc(N3CC[C@H](N(C)C(=O)OC(C)C)C3)nn12` [(S)-isopropyl (1-(3-(5-fluoro-2-methoxypyridin-3-yl)imidazo[1,2-b]pyridazin-6-yl)pyrrolidin-3-yl)(methyl)carbamate], the IC50 on AAK1 [1] was ≤ 10 nM; at AAK1 [2] it was ≤ 100 nM.

`CC(C)OC(=O)N(C)[C@H]1CCN(c2ccc3ncc(-c4cccnc4)n3n2)C1` [(S)-isopropyl methyl(1-(3-(pyridin-3-yl)imidazo[1,2-b]pyridazin-6-yl)pyrrolidin-3-yl)carbamate]: the figures for the concentration for half-maximal inhibition (IC50) against AAK1 [1] and at AAK1 [2] were ≤ 10 nM and ≤ 100 nM, respectively.

With `COc1nc(C)ccc1-c1cnc2ccc(N3CC[C@H](N(C)C(=O)OC(C)C)C3)nn12` [(S)-isopropyl(1-(3-(2-methoxy-6-methylpyridin-3-yl)imidazo[1,2-b]pyridazin-6-yl)pyrrolidin-3-yl)(methyl)carbamate], the IC50 against AAK1 [1] and at AAK1 [2] was ≤ 10 nM in each case.

For `CC(C)(C)COC(=O)N1CCC[C@H]1CNc1ccc2ncc(-c3ccc(CN)cc3)n2n1` [(S)-neopentyl 2-(((3-(4-(aminomethyl)phenyl)imidazo[1,2-b]pyridazin-6-yl)amino)methyl)pyrrolidine-1-carboxylate], the IC50 against AAK1 [1] and at AAK1 [2] was ≤ 10 nM throughout.

Regarding `CC(C)(C)COC(=O)N1CCC[C@H]1CNc1ccc2ncc(-c3ccncc3)n2n1` [(S)-neopentyl 2-(((3-(pyridin-4-yl)imidazo[1,2-b]pyridazin-6-yl)amino)methyl)pyrrolidine-1-carboxylate], the IC50 against AAK1 [1] is ≤ 10 nM; on AAK1 [2] it was ≤ 100 nM.

Consider `CC(C)(C)OC(=O)N1CCC[C@H]1CNc1ccc2ncc(-c3ccc(CN)cc3)n2n1` [(S)-tert-butyl 2-(((3-(4-(aminomethyl)phenyl)imidazo[1,2-b]pyridazin-6-yl)amino)methyl)pyrrolidine-1-carboxylate], for which the IC50 against AAK1 [1] and at AAK1 [2] was ≤ 10 nM throughout.

As for `CC(C)(C)OC(=O)N1CCC[C@H]1CNc1ccc2ncc(-c3ccc(C(N)=O)cc3)n2n1` [(S)-tert-butyl 2-(((3-(4-carbamoylphenyl)imidazo[1,2-b]pyridazin-6-yl)amino)methyl)pyrrolidine-1-carboxylate], the half-maximal inhibitory concentration (IC50) against AAK1 [1] and at AAK1 [2] was ≤ 10 nM throughout.

Consider `CNC(=O)c1cnc2ccc(NC[C@@H]3CCCN3C(=O)OC(C)(C)C)nn12` [(S)-tert-butyl 2-(((3-(methylcarbamoyl)imidazo[1,2-b]pyridazin-6-yl)amino)methyl)pyrrolidine-1-carboxylate], for which the IC50 is ≤ 10 nM against AAK1 [1] and ≤ 100 nM on AAK1 [2].

For the compound `CC(C)(C)OC(=O)N1CC[C@H]1CNc1ccc2ncc(Br)n2n1` [(S)-tert-butyl 2-(((3-bromoimidazo[1,2-b]pyridazin-6-yl)amino)methyl)azetidine-1-carboxylate], the values for the half-inhibitory concentration (IC50) against AAK1 [1] and at AAK1 [2] were ≤ 10 nM and ≤ 100 nM, respectively.

In the case of `Cc1cnc2ccc(NC[C@@H]3CCCN3C(=O)OC(C)(C)C)nn12` [(S)-tert-butyl 2-(((3-methylimidazo[1,2-b]pyridazin-6-yl)amino)methyl)pyrrolidine-1-carboxylate], the IC50 on AAK1 [1] is ≤ 10 nM; on AAK1 [2] it was ≤ 100 nM.

In the case of `CC(C)(C)OC(=O)N1CCC[C@H]1CNc1ccc2ncc(-c3ccccc3)n2n1` [(S)-tert-butyl 2-(((3-phenylimidazo[1,2-b]pyridazin-6-yl)amino)methyl)pyrrolidine-1-carboxylate], the half-maximal inhibitory concentration (IC50) at AAK1 [1] and at AAK1 [2] was ≤ 10 nM in each case.

For `COc1ccccc1-c1cnc2ccc(N3CC[C@H](N(C)C(=O)OC(C)(C)C)C3)nn12` [(S)-tert-butyl (1-(3-(2-methoxyphenyl)imidazo[1,2-b]pyridazin-6-yl)pyrrolidin-3-yl)(methyl)carbamate], the figures for the concentration for half-maximal inhibition (IC50) at AAK1 [1] and on AAK1 [2] were ≤ 10 nM and ≤ 100 nM, respectively.

Consider `CN(C(=O)OC(C)(C)C)[C@H]1CCN(c2ccc3ncc(-c4ccncc4)n3n2)C1` [(S)-tert-butyl methyl(1-(3-(pyridin-4-yl)imidazo[1,2-b]pyridazin-6-yl)pyrrolidin-3-yl)carbamate], for which the half-maximal inhibitory concentration (IC50) was ≤ 10 nM on AAK1 [1] and ≤ 1000 nM at AAK1 [2].

On to `C=COC(=O)N1CCC[C@H]1CNc1ccc2ncc(-c3ccccc3OC)n2n1` [(S)-vinyl 2-(((3-(2-methoxyphenyl)imidazo[1,2-b]pyridazin-6-yl)amino)methyl)pyrrolidine-1-carboxylate], for which the values for the IC50 on AAK1 [1] and at AAK1 [2] were ≤ 10 nM and ≤ 100 nM, respectively.

For the compound `COc1ccccc1-c1cnc2ccc(N3CC[C@H](N(C)C(=O)N4CCCC4)C3)nn12` [(S)—N-(1-(3-(2-methoxyphenyl)imidazo[1,2-b]pyridazin-6-yl)pyrrolidin-3-yl)-N-methylpyrrolidine-1-carboxamide], the IC50 against AAK1 [1] was ≤ 10 nM; at AAK1 [2] it was ≤ 100 nM.

As to `COc1ncccc1-c1cnc2ccc(N3CC[C@H](N(C)C(=O)N4CCCC4)C3)nn12` [(S)—N-(1-(3-(2-methoxypyridin-3-yl)imidazo[1,2-b]pyridazin-6-yl)pyrrolidin-3-yl)-N-methylpyrrolidine-1-carboxamide], the half-inhibitory concentration (IC50) at AAK1 [1] is ≤ 10 nM; at AAK1 [2], ≤ 100 nM.

`CN(C)C(=O)c1cccc(-c2cnc3ccc(N4CCN(C(=O)N5CCCC5)CC4)nn23)c1` [N,N-dimethyl-3-(6-(4-(pyrrolidine-1-carbonyl)piperazin-1-yl)imidazo[1,2-b]pyridazin-3-yl)benzamide]: the concentration for half-maximal inhibition (IC50) against AAK1 [1] was ≤ 10 nM; on AAK1 [2], ≤ 100 nM.

For the compound `c1cc(-c2cnc3ccc(NCCOC4CCCC4)nn23)n[nH]1` [N-(2-(cyclopentyloxy)ethyl)-3-(1H-pyrazol-3-yl)imidazo[1,2-b]pyridazin-6-amine], the half-maximal inhibitory concentration (IC50) was ≤ 100 nM against AAK1 [1] and ≤ 1000 nM at AAK1 [2].

In the case of `Fc1ncccc1-c1cnc2ccc(NCCOC3CCCC3)nn12` [N-(2-(cyclopentyloxy)ethyl)-3-(2-fluoropyridin-3-yl)imidazo[1,2-b]pyridazin-6-amine], the IC50 at AAK1 [1] is ≤ 10 nM; on AAK1 [2], ≤ 1000 nM.

On to `COc1cncc(-c2cnc3ccc(NCCOC4CCCC4)nn23)c1` [N-(2-(cyclopentyloxy)ethyl)-3-(5-methoxypyridin-3-yl)imidazo[1,2-b]pyridazin-6-amine], for which the IC50 against AAK1 [1] is ≤ 10 nM; at AAK1 [2], ≤ 100 nM.

In the case of `c1ccc(-c2cnc3ccc(NCCOC4CCCC4)nn23)nc1` [N-(2-(cyclopentyloxy)ethyl)-3-(pyridin-2-yl)imidazo[1,2-b]pyridazin-6-amine], the IC50 is ≤ 10 nM at AAK1 [1] and ≤ 100 nM on AAK1 [2].

For the compound `CC(=O)Nc1cccc(-c2cnc3ccc(NCCOC4CCCC4)nn23)c1` [N-(3-(6-((2-(cyclopentyloxy)ethyl)amino)imidazo[1,2-b]pyridazin-3-yl)phenyl)acetamide], the IC50 against AAK1 [1] and at AAK1 [2] was ≤ 100 nM throughout.

Take `CC(C)(C)NC(=O)N1CCN(c2ccc3ncc(-c4ccccc4)n3n2)CC1` [N-(tert-Butyl)-4-(3-phenylimidazo[1,2-b]pyridazin-6-yl)piperazine-1-carboxamide]: the results for the IC50 against AAK1 [1] and at AAK1 [2] were ≤ 10 nM and ≤ 100 nM, respectively.

For `COc1ccccc1-c1cnc2ccc(N3CCN(C(=O)N(C)C(C)C)CC3)nn12` [N-isopropyl-4-(3-(2-methoxyphenyl)imidazo[1,2-b]pyridazin-6-yl)-N-methylpiperazine-1-carboxamide], the IC50 was ≤ 10 nM on AAK1 [1] and ≤ 100 nM on AAK1 [2].

Consider `COc1ccccc1-c1cnc2ccc(N3CCN(C(=O)NC(C)C)CC3)nn12` [N-isopropyl-4-(3-(2-methoxyphenyl)imidazo[1,2-b]pyridazin-6-yl)piperazine-1-carboxamide], for which the IC50 is ≤ 10 nM at AAK1 [1] and ≤ 1000 nM at AAK1 [2].

For the compound `CC(C)SC(=O)N1CCN(c2ccc3ncc(-c4ccccc4)n3n2)CC1` [S-Isopropyl 4-(3-phenylimidazo[1,2-b]pyridazin-6-yl)piperazine-1-carbothioate], the IC50 was ≤ 10 nM against AAK1 [1] and ≤ 1000 nM at AAK1 [2].

Regarding `O=C(N1CCCC1)N1CCN(c2ccc3ncc(-c4ccccn4)n3n2)CC1` [[4-(3-Pyridin-2-yl-imidazo[1,2-b]pyridazin-6-yl)-piperazin-1-yl]-pyrrolidin-1-yl-methanone], the IC50 at AAK1 [1] is ≤ 10 nM; on AAK1 [2] it was ≤ 100 nM.

Consider `CN(C(=O)OC(C)(C)C)[C@H]1CCN(c2ccc3ncc(Br)n3n2)C1` [[(S)-1-(3-Bromo-imidazo[1,2-b]pyridazin-6-yl)-pyrrolidin-3-yl]-methyl-carbamic acid tert-butyl ester], for which the IC50 on AAK1 [1] was ≤ 10 nM; at AAK1 [2] it was ≤ 1000 nM.

In the case of `CCOC(=O)N1CCN(c2ccc3ncc(-c4ccccc4)n3n2)CC1` [ethyl 4-(3-phenylimidazo[1,2-b]pyridazin-6-yl)piperazine-1-carboxylate], the IC50 is ≤ 10 nM at AAK1 [1] and ≤ 100 nM on AAK1 [2].

With `CC(C)OC(=O)N1CCN(c2ccc3ncc(-c4cccc5c4OC(F)(F)O5)n3n2)CC1` [isopropyl 4-(3-(2,2-difluorobenzo[d][1,3]dioxol-4-yl)imidazo[1,2-b]pyridazin-6-yl)piperazine-1-carboxylate], the IC50 is ≤ 10 nM against AAK1 [1] and ≤ 1000 nM on AAK1 [2].

In the case of `COc1cccc(-c2cnc3ccc(N4CCN(C(=O)OC(C)C)CC4)nn23)c1OC` [isopropyl 4-(3-(2,3-dimethoxyphenyl)imidazo[1,2-b]pyridazin-6-yl)piperazine-1-carboxylate], the IC50 on AAK1 [1] is ≤ 10 nM; at AAK1 [2], ≤ 100 nM.

As to `COc1ccc(OC)c(-c2cnc3ccc(N4CCN(C(=O)OC(C)C)CC4)nn23)c1` [isopropyl 4-(3-(2,5-dimethoxyphenyl)imidazo[1,2-b]pyridazin-6-yl)piperazine-1-carboxylate], the IC50 against AAK1 [1] was ≤ 10 nM; at AAK1 [2], ≤ 100 nM.
